From patent US20160243136A1, “PHARMACEUTICAL FORMULATIONS CONTAINING MITOCHONDRIALLY TARGETED ANTIOXIDANTS” (Mitotech SA, priority 2013, published 2016)
“Also recorded” adds a separate entry of the source.

Key:
[1] = tested on: renal tubular cells (RTC); experiment: In vitro inflammation model: renal tubular cells co-cultivated with bacterial lysate-activated leukocytes; format: cell-based, rat; conditions: for renal cell death (Annexin V-positive): 48 hr exposure to activated leukocytes, pre-incubation with drug; for TNF release in RTC-leukocyte co-culture: activated leukocytes (LC+BL)
Method: Kidneys from 1-3 day old rats were excised under aseptic conditions. The tissue was blended and dissociated by collagenase treatment (0.5%, 30 min at 37° C.). The final suspension was centrifuged for 5 min at 50 g. The pellet was resuspended in about 10 ml of DMEM/F12 (Gibco, USA) supplemented with 10% FCS (Gibco, USA) and kept for 2 min, after which the supernatant was transferred to another tube and the pellet was repeatedly resuspended. After 10 min, the renal tubules were pelleted and dissociated cells remaining in the suspension were discarded. The pellet was resuspended in DMEM/F12 with 10% FCS and seeded onto 24-well plates or onto coverslips placed in 35-mm glass-bottom Petri dishes.
E. coli strain No. 85 was cultured overnight in a cultivation medium containing 1% tryptone, 0.5% yeast extract and 1% NaCl (Sigma-Aldrich, USA). The medium, containing roughly 10^9 colony-forming units (CFU) per ml, was pelleted at 300 g for 3 min. The bacterial lysate was prepared by diluting 30 ml of an overnight (ON) culture and diluting the precipitate in 3 ml of 0.9% NaCl followed by autoclaving for 1.5 hr at 120° C.
5 ml heparinized blood collected from the jugular vein of adult male rats was carefully layered over 5 ml of Ficoll-Urografin (density of 1.077 g/cm^3), and centrifuged for 30 min at 200 g. This procedure results in erythrocyte pelleting, while the mononuclear fraction of leukocytes forms an interphase ring on the Ficoll surface, which was carefully collected. Leukocytes were transferred into another tube and centrifuged for 3 min at 200 g. The resultant pellet was resuspended in 5 ml of DMEM/F12. After cell counting in a hemocytometer, the cells were diluted to a final concentration of about 1×10^5 cells per ml.
In a two-day old renal cell culture, the medium was substituted with DMEM/F12 (400 μl per well, 1600 μl per dish), supplemented with (depending on the purpose): GSK-3β inhibitor LiCl (9 mM) (Sigma-Aldrich, USA), water-soluble antioxidant Trolox (50 μM, 100 μM) (Sigma-Aldrich, USA), MTAs 10-(6-plastoquinonyl)decyl-triphenylphosphonium (SkQ1), synthesized according to Antonenko et al. (2008) Biochemistry (Mosc) 73:1273-87), 10 nM, 100 nM), and 10-(6′-plastoquinonyl) decylrhodamine 19 SkQR1), synthesized according to Antonenko (2008), (1 nM, 10 nM, or 100 nM). Renal cells were incubated for 2 hr in this medium, followed by supplementation with leukocytes or neutrophils in DMEM/F12, or DMEM/F12, alone, in the control sample (400 μl per well, 1600 μl per dish). Simultaneously, the bacterial lysate or lipopolysaccharide (100 ng/ml, LPS, Sigma-Aldrich, USA) solution in DMEM/F12 and DMEM/F12 alone in the control sample (100 μl per well, 400 μl per dish) were added. Renal cells, leukocytes (neutrophils) were co-cultivated for 24 or 48 hr with bacterial lysate or LPS. Cell death (both necrotic and apoptotic) rate was evaluated using Annexin-V FITC Kit (Invitrogen, USA).
(§1) The ROS-sensitive fluorescent probe 2,7-DCF-DA (Molecular Probes, USA) dissolved in DMEM/F12 without bicarbonate (final concentration 10 μM) was added to renal cells (500 μl per well of 24-well plate, 2 ml per dish) and incubated for 15 min at 37° C. followed by a wash with DMEM/F12 without bicarbonate. MDA was determined as in (Mihara and Uchiyama (1978) Anal. Biochem. 86:271-8). Fluorescent probe, DAF-2-DA (Calbiochem, San Diego, Calif., USA) was used for NO determination in living cells. The procedure was the same as for 2,7-DCF-DA. The nitrite/nitrate concentration (as products of NO oxidation) in culture media was determined using Nitrite/Nitrate Assay Kit (Sigma-Aldrich, USA). TNFα was determined using the kit Rat TNFα ELISA Ready-SET-Go (Ebioscience, USA).
Renal cells were imaged with an LSM510 inverted confocal microscope (Carl Zeiss Inc., Jena, Germany) with excitation at 488 nm and emission collected at 500 nm-530 nm with a pinhole diameter of 150 μm. Images were processed using ImageJ software (NIH, Bethesda, Md., USA).

rat model of APN = experiment: In vivo rat model of acute pyelonephritis (APN), bacteria introduced in the bladder
Method: An in vivo experimental model of APN was used where bacteria are introduced in the bladder of rat (Gupta et al. (1995) J. Med. Microbiol. 43:33-36). Experiments were performed on outbred white female rats (180-200 g) fed ad libitum. Animal protocols were approved by the Institutional Review Boards. Rats were anesthetized with chloral hydrate (300 mg/kg, intraperitoneally(ip)). The animals were infected intraurethrally using a soft Intramedic non-radio-opaque polyethylene catheter (Clay Adams, USA). The inoculum (5 ml per kg, 1×10^8 CFU/ml of rat fecal bacterial composition) was injected slowly to avoid any leakage […]. Control animals were untreated. The therapeutic protocol of SkQR1 used to treat this pathology was as follows: […], with subsequent injections of the same amount of SkQR1 at 12, 24, 36 and 48 hrs; in total, each animal received 500 nmol SkQR1 per kg. […]
Kidney mitochondria were isolated by homogenization and differential centrifugation in a medium containing 250 mM sucrose, 20 mM HEPES-KOH, 1 mM EGTA and 0.1% BSA, pH7.4. Total mitochondrial protein was determined using a bicinchoninic acid protein assay kit (Sigma-Aldrich, USA). The mitochondria from cultured kidney cells were isolated by the same protocol.
as §1
The kidney was isolated immediately after sacrificing the animal and perfused with ice-cold PBS. It was then fixed in a 10% neutral buffered formalin solution, embedded in paraffin and used for histopathological examination. Five micrometer thick sections were cut, deparaffinized, hydrated, and stained with hematoxylin and eosin. The renal sections were examined in blinded fashion for inflammation and infiltration by leukocytes in the kidneys of all treated animals. A minimum of 10 fields for each kidney slide were examined and scored for pathologic severity.
The manifestation of inflammatory indicators (i.e., a number of infiltrated leukocytes in every layer and the presence of abscesses) under APN was evaluated using the following scale: 0, none; 1, 5-50 leukocytes in the view field; […]; 4, abscesses with pus-necrotic content. The distribution of inflammatory changes (i.e., comparative analysis of infiltration and abscesses) was evaluated by the following criteria: 0, none in any layer; 1, infiltration in the medullar layer; 2, infiltration reaching the cortex.
Kidney homogenates for MPO determination were centrifuged at 20000 g 15 min, the pellets were resuspended in 50 mM K-phosphate buffer containing 0.5% CTAB. Resulted samples were frozen and thawed three times and then centrifuged at 10600 g 10 min. Supernatants were analyzed for MPO activity in chromogenic reaction with o-phenylenediamine (OPD). 100 μl sample was mixed with 100 μl substrate buffer (25 mM Na-citrate, 50 mM Na-phosphate, 0.45 mg/ml OPD, 0.1% H2O2, pH 5.0) and was incubated 15 min at room temperature and then OD was detected at 492 nm.
Samples of kidney homogenates were loaded onto 15% Tris-glycine polyacrylamide gels (10-20 μg of total protein per lane). After electrophoresis, gels were blotted onto PVDF membranes (Amersham Pharmacia Biotech, UK). […]

c1ccc2c(c1)[I+]c1ccccc1-2 [DPI, diphenyleneiodonium, reference compound]
ROS production inside renal cells (DCF fluorescence) ([1]; 0.5 μM): inhibited the ROS production

[Cl-].[Li+] [LiCl, reference compound]
renal cell death (Annexin V-positive) [1]: protected renal cells from death and its effect was more profound than of Trolox
ROS production in renal cells (DCF fluorescence) ([1]; LiCl pre-treatment (9 mM)): had an antioxidative effect
TNF release in RTC-leukocyte co-culture [1]: did not have a significant effect

Cc1c(C)c2c(c(C)c1O)CCC(C)(C(=O)O)O2 (centres unmarked) [Trolox, reference compound]
ROS production in renal cells (DCF fluorescence) ([1]; 100 μM, pretreatment 2 hr, co-cultivation with activated leukocytes): suppression of ROS production after co-cultivation with activated leukocytes to levels close to those observed on controls
TNF release in RTC-leukocyte co-culture [1]: did not have a significant effect

CC/N=c1/cc2oc3cc(NCC)c(C)cc3c(-c3ccccc3C(=O)OCCCCCCCCCCC3=CC(=O)C(C)=C(C)C3=O)c-2cc1C [SkQR1, 10-(6′-plastoquinonyl) decylrhodamine 19]
number of leukocytes in the blood (rat model of APN; 3 days after infection, SkQR1): prevented an elevation
abscesses in kidneys of pyelonephritic rats (rat model of APN; SkQR1 100 nmoles/kg ip at 1, 12, 24, 36, 48 hr after bacteria): significantly less prevalent
MDA concentration in whole kidney tissue (rat model of APN; SkQR1 100 nmoles/kg ip x5): significantly lower
leukocyte infiltration in all kidney layers and spreading of the inflammatory process (rat model of APN; SkQR1 100 nmoles/kg ip x5, histology): inhibited
kidney tissue concentration of TNFα (rat model of APN; SkQR1-treated pyelonephritic rats vs APN rats without SkQR1): lower than in APN rats without SkQR1
activation of pro-inflammatory signaling pathways in peripheral leukocytes (rat model of APN; SkQR1-treated rats): suppressed
other inflammation markers in blood (FIG. 8A-8C) (rat model of APN; SkQR1-treated rats): decreased
animal survival (rat model of APN; SkQR1 during first two days after infection): significantly greater
Bcl-2 changes in isolated kidney mitochondria (weaker 26 kD band, stronger 15 kD band) (rat model of APN; Western blot): diminished
level of IKB in leukocytes (rat model of APN; Western blot, lower in untreated pyelonephritic rats): lower in untreated pyelonephritic rats but not in SkQR1-treated rats
Bcl-2 level in total kidney homogenates (rat model of APN; Western blot, lowering seen with pyelonephritis): absent in pyelonephritic rats receiving SkQR1
expression of toll receptors in different regions of the kidney (rat model of APN; activated under APN): normal expression
tissue activity of myeloperoxidase (MPO), index of neutrophil infiltration (rat model of APN; kidney, SkQR1 100 nmoles/kg ip x5): significantly inhibited
ROS production (DCF fluorescence) in blood leukocytes (rat model of APN; leukocytes from pyelonephritic rats receiving SkQR1 vs untreated): lower than in untreated animals
ROS production in renal cells (DCF fluorescence) ([1]; 10 nM, pretreatment 2 hr, co-cultivation with activated leukocytes): suppression of ROS production after co-cultivation with activated leukocytes to levels close to those observed on controls
renal cell death (Annexin V-positive) [1]: more pronounced than that afforded by the traditional water-soluble antioxidant, Trolox; also recorded: highest efficiency
TNF release in RTC-leukocyte co-culture [1]: did not have a significant effect
